Earlier results in patent US9895311B2, “Foam-forming compositions and methods for delivering an active to a body cavity” (Pharmiva AB, priority 2014, dated 2018).

Legend:
[1] = system: anaerobic bacteria involved in vaginal and urinary tube infections; conditions: in 7 seconds, laboratory conditions (Block 1983)
several species = conditions: even at low pH (Attassi, Servin 2010)

OO [hydrogen peroxide]
log reduction [1]: 2 log | Concentration required for inhibition (several species): ≥ 20 mM
